The values that follow come from patent US6746667B2, “Adhesive treatment for tinea pedis” (Closure Medical Corporation, priority 2001, dated 2004).

Molecules are shown by their SMILES.

The data set can be described thus: observation of haloprogin / 2-octyl cyanoacrylate monomer composition after preparation. It counts as physicochemical. To be noted: 30 mg in 2 mL 2-octyl cyanoacrylate monomer; about one minute and at least twenty-four hours after preparation. How it is done:
A 2-octyl cyanoacrylate monomer composition is prepared by adding 30 mg of haloprogin, an anti-fungal agent, to 2 mL of 2-octyl cyanoacrylate monomer. The mixture is sealed in a glass vial and stirred. The characteristics of the composition are observed at about one minute after preparation and later at least twenty-four hours after preparation.

In the case of `Clc1cc(Cl)c(OCC#CI)cc1Cl` [haloprogin], the “premature polymerization of the monomer (stability)” value is given as “does not cause premature polymerization” and the “solubility in the monomer” value is recorded as “soluble in the monomer”.
